We go through 1 compound from US5541232A, “Treatment of multidrug resistant diseases” (Chemex Pharmaceuticals, Inc., priority 1994, dated 1996).

Entries after “also recorded” stand apart in the source; their conditions may differ. Read-outs that look alike come from different tables or passages of the source.

Experiment [1] concerns malignant melanoma. Conditions: in vivo; cited from earlier work.
The test system of experiment [2] is Detroit 551 Skin Fibroblasts. The experiment can be described thus: in vitro cytotoxicity, normal cells. In kind it is cell-based. Conditions: Homo sapiens, read-out: IC50.
The test system of experiment [3] is KB-3-1 human cervical carcinoma cells. Nature of the experiment: modulation of cisplatin uptake. To be noted: one hour, 5 μM cisplatin; FIG. 5. In kind it is cell-based. As to the method: Subconfluent cultures of KB-3-1 cells were incubated with [^3 H]cisplatin (cis-DDP) in culture medium or in medium containing the indicated concentrations of masoprocol as presented in FIG. 5. After one hour incubation, the medium was aspirated and the cells washed 5 times with ice cold PBS. Cells were digested overnight in 1N NaOH, at which time aliquots were used to determine protein content and radioactivity. The final concentration of cisplatin was 5 μM. Each data point represents the mean of triplicate dishes from replicate experiments. The vertical bars are +/- standard deviations.

Experiment [4] shares this test system. Nature of the experiment: steady state accumulation of VBL, KB-3-1. In kind it is cell-based. As to the method:
At the desired time, the medium was aspirated and cells washed 5 times with ice cold PBS. Cells were digested overnight in 1N NaOH, at which time aliquots were used to determine protein content and radioactivity. The final concentration of VBL was 6 nM.
Cells were incubated for one hour with media containing either tritiated vinblastine (^3 H]VBL) alone or containing [^3 H]VBL with 50 μM masoprocol. Cells were then washed with ice cold PBS and the amount of VBL accumulated in cells was determined using a scintillation counter. In FIG. 1 each data point represents the mean of replicate experiments performed with duplicate cultures. Vertical bars are +/- S.D.

Experiment [5] has as its system DLD-1 Colon cancer cells. Nature of the experiment: in vitro cytotoxicity anti tumor activity. In kind it is cell-based. To be noted: Homo sapiens, DLD-1, 1 h; One Hour Pulse Treatment; read-out: IC50.

Turning to `C[C@H](Cc1ccc(O)c(O)c1)[C@@H](C)Cc1ccc(O)c(O)c1` [Masoprocol, meso-1,4-bis (3,4-dihydroxyphenyl)-2,3-dimethylbutane], the “result against malignant melanoma” value in experiment [1] is “positive result”. Further, the IC50 (in general, the concentration that gives 50% inhibition) in experiment [2] (Detroit 551, 1 h, One Hour Pulse Treatment) stood at 62.7 µM; in experiment [2] (Detroit 551, Continuous Drug Exposure, observation at 70 hours), 312 µM; in experiment [5], 124 µM. In addition, in experiment [3], the “increase in uptake of cisplatin” value was “about 25%”. Besides, in experiment [4] (50 μM masoprocol), the “steady state accumulation of VBL, compared with verapamil” value is on record as “comparable to that of 10 μM verapamil”. The “steady state accumulation of VBL” value in experiment [4] (one hour, masoprocol with [3H]VBL) is reported as “dose-dependent increase in the steady state accumulation of VBL; also recorded: increases the steady state accumulation of VBL”.
